Consider four molecules from patent US4551547A, “Biocidal 2-aryl-1, 3-cyclopentanedione enol ester compounds” (Union Carbide Corporation, priority 1983, dated 1985).

Values after ≈ are worked out from the molar mass of the structure shown.

Test [1] relates to egg of the two-spotted mite. In words: Mite Ovicide Test (eggs). The following applies: for Miticidal, Egg: Table II, unhatched eggs after four days; for LC50: Tetranychus urticae, Table III, ppm required for a 50 percent kill of eggs, read-out: Miticidal LD50, Egg. It counts as in vivo, Tetranychus urticae (Koch). Details: key to Miticidal, Egg: A: Excellent Control; B: Partial Control; No Control. The essentials: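 Tetranychus urticae eggs laid over 48 h on bean plants (adults then killed with tetraethyl pyrophosphate) were sprayed to run-off with aqueous acetone/emulsifier suspensions at graded ppm; solvent-sprayed controls. After 4 days at 80±5 °F, 50±5% RH, hatched versus unhatched eggs counted microscopically; ppm for 50% egg kill reported.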

A further test has as its system Corn. In words: Post-emergent herbicidal test, corn. It counts as in vivo. Also on record: key: 1: no perceptible injury; 2: intermediate degrees of injury; 3: intermediate degrees of injury; 4: intermediate degrees of injury; 5: the plant was dead. The note with it: 2500 parts per million, after ten days; for Post-emergent Herbicidal, Corn: Table II; for Post Emergent Herbicidal, Corn: Table III. The essentials: (§1)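 Compounds dispersed in acetone/surfactant/water and sprayed at 2500 ppm onto foliage of healthy plants. Plants kept in greenhouse; foliar injury scored visually after ten days on a 1 (no injury) to 5 (dead) scale.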

For another test, the system named is Tomato. In words: Post-emergent herbicidal test, tomato. It counts as in vivo. Details: key: 1: no perceptible injury; 2: intermediate degrees of injury; 3: intermediate degrees of injury; 4: intermediate degrees of injury; 5: the plant was dead. The following applies: 2500 parts per million, after ten days; for Post-emergent Herbicidal, Tomato: Table II; for Post Emergent Herbicidal, Tomato: Table III. The essentials:
as §1

The test system of a further test is Cotton. In words: Post-emergent herbicidal test, cotton. In kind it is in vivo. Also on record: key: 1: no perceptible injury; 2: intermediate degrees of injury; 3: intermediate degrees of injury; 4: intermediate degrees of injury; 5: the plant was dead. The note with it: 2500 parts per million, after ten days; for Post-emergent Herbicidal, Cotton: Table II; for Post Emergent Herbicidal, Cotton: Table III. The essentials:
as §1

A further test concerns Perennial rye grass. In words: Preliminary herbicide seed germination test (pre-emergent), perennial rye grass. It counts as in vivo, Solium perenne. Details: key: 5: no seedling emerged; 4: few seedlings emerged and/or very severe stunting; 3: moderate reduction in stand and/or moderate stunting.; 2: very slight reduction in stand and/or slight stunting; 1: no injury, seedlings appear no different with respect to stand or growth than untreated controls. The following applies: ten to twelve days after application. The essentials: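 Compounds formulated in acetone with alkylphenoxyethanol surfactant and diluted in water to ppm test levels. Perennial rye grass seed-soil mixtures potted and drenched with 25 mL formulation about 2 h after planting, in the greenhouse. Controls received solvent and emulsifier without compound, and pre-emergent effects were rated on a scale.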

In the next test the test system is Crabgrass. In words: Preliminary herbicide seed germination test (pre-emergent), crabgrass. In kind it is in vivo, Digitaria sanguinalis. Also on record: key: 5: no seedling emerged; 4: few seedlings emerged and/or very severe stunting; 3: moderate reduction in stand and/or moderate stunting.; 2: very slight reduction in stand and/or slight stunting; 1: no injury, seedlings appear no different with respect to stand or growth than untreated controls. The following applies: ten to twelve days after application. The essentials:
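Crabgrass (Digitaria sanguinalis) seed-soil mixtures in pots were drenched about 2 h after planting with 25 mL of compound suspension, diluted in water from an acetone/alkylphenoxyethanol-emulsified stock. Each compound was tested at the same ppm concentration. Solvent-emulsifier blanks served as controls; effects were rated visually.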

In test [2] the test system is Red root pigweed (Amaranthus). Kind of test: Preliminary herbicide seed germination test (pre-emergent), red root pigweed. Details: key: 5: no seedling emerged; 4: few seedlings emerged and/or very severe stunting; 3: moderate reduction in stand and/or moderate stunting.; 2: very slight reduction in stand and/or slight stunting; 1: no injury, seedlings appear no different with respect to stand or growth than untreated controls. The following applies: ten to twelve days after application. In kind it is in vivo, Amaranthus retroflexus. The essentials: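 Pre-emergent pot test in the greenhouse with Amaranthus retroflexus seed mixed into soil. About 2 h after planting, 25 mL of aqueous formulation (diluted from a 0.5% w/w acetone/surfactant stock) was applied per pot, with concentration given in ppm. Solvent/emulsifier-only pots served as controls, and effects were scored on a rating scale.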

Another test concerns Mustard. Kind of test: Preliminary herbicide seed germination test (pre-emergent), mustard. In kind it is in vivo, Brassica pincea var. foliosa (Florida broadleaf). Also on record: key: 5: no seedling emerged; 4: few seedlings emerged and/or very severe stunting; 3: moderate reduction in stand and/or moderate stunting.; 2: very slight reduction in stand and/or slight stunting; 1: no injury, seedlings appear no different with respect to stand or growth than untreated controls. The note with it: ten to twelve days after application. In short, it runs like this: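 Stock suspension (0.5% w/w compound in acetone with alkylphenoxyethanol surfactant, emulsified in water) diluted with water to test concentration; 25 mL applied pre-emergence to greenhouse pots of mustard seed–soil mixture ~2 h after planting. Solvent/emulsifier-only controls; injury rated visually.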

On to `CC(=O)OC1=C(c2cc(C)ccc2C)C(=O)C2CCCCC12` (centres unmarked) [Compound 28], for which the “Miticidal, Egg” value in test [1] is “A”. The “Post-emergent Herbicidal, Corn” value with Corn is on record as 3. Also, the “Post-emergent Herbicidal, Tomato” value in the test on Tomato stood at 1. In the test with Cotton, the “Post-emergent Herbicidal, Cotton” value worked out at 1. In addition, the “Pre-emergent Herbicidal, Rye” value with Perennial rye grass (Table II) stood at 3. Also, in the test with Crabgrass (Table II), the “Pre-emergent Herbicidal, Crabgrass” value was 2. The “Pre-emergent Herbicidal, Amaranthus” value in test [2] (Table II) stood at 1. Further, the “Pre-emergent Herbicidal, Mustard” value in the test on Mustard (Table II) came to 1.
As to `CCCCCCCCCC(=O)OC1=C(c2ccccc2C)C(=O)c2ccccc21` [reference compound], the LC50 in test [1] came to 500 µg/mL (≈ 1280 µM). Besides, the “Post Emergent Herbicidal, Corn” value in the test with Corn stood at 1. For the same molecule, in the test on Tomato, the “Post Emergent Herbicidal, Tomato” value was 1. Further, the “Post Emergent Herbicidal, Cotton” value in the test with Cotton is given as 1. In addition, the “Pre-emergent Herbicidal, Rye” value with Perennial rye grass (Table III) is 1. For the same molecule, the “Pre-emergent Herbicidal, Crabgrass” value in the test on Crabgrass (Table III) was 1. For the same molecule, in test [2] (Table III), the “Pre-emergent Herbicidal, Amaranthus” value was determined as 1. In addition, in the test with Mustard (Table III), the “Pre-emergent Herbicidal, Mustard” value is 1.
In the case of `O=C1CCC(OC(=O)c2ccccc2)=C1c1ccccc1Cl` [Compound 2], the “Miticidal, Egg” value in test [1] is given as “A”. Moreover, the “Post-emergent Herbicidal, Corn” value in the test with Corn turned out to be 3. Besides, the “Post-emergent Herbicidal, Tomato” value in the test with Tomato is on record as 2. Besides, in the test with Cotton, the “Post-emergent Herbicidal, Cotton” value is reported as 2. Besides, the “Pre-emergent Herbicidal, Rye” value in the test on Perennial rye grass (Table II) was determined as 4. Also, the “Pre-emergent Herbicidal, Crabgrass” value in the test on Crabgrass (Table II) was 3. The “Pre-emergent Herbicidal, Amaranthus” value in test [2] (Table II) came out at 1. For the same molecule, in the test on Mustard (Table II), the “Pre-emergent Herbicidal, Mustard” value stood at 1.
Consider `Cc1ccccc1C1=C(OC(=O)C(C)(C)C)c2ccccc2C1=O` [reference compound], for which, in test [1], the LC50 turned out to be 270 µg/mL (≈ 843 µM). The “Post Emergent Herbicidal, Corn” value with Corn is recorded as 1. The “Post Emergent Herbicidal, Tomato” value in the test with Tomato stood at 1. Further, the “Post Emergent Herbicidal, Cotton” value in the test with Cotton was 1. Besides, the “Pre-emergent Herbicidal, Rye” value in the test with Perennial rye grass (Table III) was 2. Also, the “Pre-emergent Herbicidal, Crabgrass” value with Crabgrass (Table III) was 2. Moreover, the “Pre-emergent Herbicidal, Amaranthus” value in test [2] (Table III) turned out to be 2. In the test on Mustard (Table III), the “Pre-emergent Herbicidal, Mustard” value was found to be 2.
